Measurements as given in patent publication US9714231B2, “Pyrrolidine GPR40 modulators” (BRISTOL-MYERS SQUIBB COMPANY, priority 2012, dated 2017).
Where a name gives a salt, the structure may show the parent alone. Read-outs that look alike come from different tables or passages of the source.

What was measured:
[1] = target: T1, human GPR40 (Homo sapiens, UniProt O14842); experiment: FDSS-based intracellular calcium assay (Human GRP40 in vitro assay); format: cell-based; design: 3xFLAG; expressed in transfected cells; settings: cells expressing GPR40, intracellular Ca2+ response, FDSS reader; read-out: hGPR40 EC50
T1 sequence (O14842 whole entry): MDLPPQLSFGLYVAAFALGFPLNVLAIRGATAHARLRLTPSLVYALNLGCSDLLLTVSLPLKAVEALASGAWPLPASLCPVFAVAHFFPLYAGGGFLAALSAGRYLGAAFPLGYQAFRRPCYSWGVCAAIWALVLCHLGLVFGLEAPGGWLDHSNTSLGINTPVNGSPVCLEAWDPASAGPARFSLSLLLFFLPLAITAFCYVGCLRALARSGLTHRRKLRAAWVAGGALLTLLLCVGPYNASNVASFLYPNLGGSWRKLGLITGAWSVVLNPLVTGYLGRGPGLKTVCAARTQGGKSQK
Method in brief: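 GPR40-expressing cells, plated overnight in serum-free phenol red-free DMEM, loaded with Fluo-3 in HBSS with 1.7 mM probenecid for 30 min at 37° C. Compounds in DMSO, diluted in assay buffer, added as 3× solutions; intracellular Ca^2+ response read on FDSS.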

[2] = target: T1, human GPR40

EC50 [1] [nM]	EC50 [2] [nM]	Compound
290	38	COc1ccc(C2CC2)c(N2CCC(Oc3ccc(N4C[C@H](OC)C[C@@H]4CC(=O)O)cc3)CC2)c1 [Example 59, 2-((2R,4R)-1-(4-(1-(2-Cyclopropyl-5-methoxyphenyl)piperidin-4-yloxy)phenyl)-4-methoxypyrrolidin-2-yl)acetic acid, TFA]
270	31	COc1cc(N2CCC(Oc3ccc(N4C[C@H](OC)C[C@@H]4CC(=O)O)cc3F)C(C)C2)c(Cl)cn1 (stereo partly drawn) [Example 142, 2-((2R,4R)-1-(4-((3,4-trans)-1-(5-Chloro-2-methoxypyridin-4-yl)-3-methylpiperidin-4-yloxy)-3-fluorophenyl)-4-methoxypyrrolidin-2-yl)acetic acid, TFA]
140	14	CCOc1ccc(F)c(N2CCC(Oc3ccc(N4C[C@H](OC)[C@@H](C)[C@@H]4CC(=O)O)cn3)C(C)C2)c1 (stereo partly drawn) [Example 117, 2-((2S,3S,4R)-1-(6-(((3,4-trans)-1-(5-Ethoxy-2-fluorophenyl)-3-methylpiperidin-4-yl)oxy)pyridin-3-yl)-4-methoxy-3-methylpyrrolidin-2-yl)acetic acid, HCl]
220	140	COc1ccc(F)c(N2CCC(Oc3ccc(N4CC(C(F)(F)F)C(C)C4CC(=O)O)cc3)CC2)c1 (single isomer, unassigned) [Example 26, Isomer 1, 2-((2,3-trans,3,4-trans)-1-(4-((1-(2-Fluoro-5-methoxyphenyl)piperidin-4-yl)oxy)phenyl)-3-methyl-4-(trifluoromethyl)pyrrolidin-2-yl)acetic acid, HCl]
33	10	COc1ccc(C2CCCC2(C)C)c(N2CCC(Oc3ccc(N4C[C@H](OC)C[C@@H]4CC(=O)O)cc3)CC2)c1 (single isomer, unassigned) [Example 65, Isomer 1]
210	310	COc1ccc(F)c(N2CCC(Oc3ccc(N4C[C@H](C(F)(F)F)C[C@@H]4CC(=O)O)cc3)CC2)c1 [Example 1, 2-((2R,4R)-1-(4-((1-(2-Fluoro-5-methoxyphenyl)piperidin-4-yl)oxy)phenyl)-4-(trifluoromethyl)pyrrolidin-2-yl)acetic acid, HCl]
289	290	COc1cc(N2CCC(Oc3ccc(N4C[C@H](OC)[C@@H](C)[C@@H]4CC(=O)O)cc3F)CC2)c(Cl)cn1 [Example 99, 2-((2S,3S,4R)-1-(4-((1-(5-Chloro-2-methoxypyridin-4-yl)piperidin-4-yl)oxy)-3-fluorophenyl)-4-methoxy-3-methylpyrrolidin-2-yl)acetic acid]
250	55	COc1cc(N2CCC(Oc3ccc(N4C[C@H](OC)C[C@@H]4CC(=O)O)cn3)C(C)C2)c(Cl)cn1 (stereo partly drawn) [Example 132, 2-((2R,4R)-1-(6-(((3,4-trans)-1-(5-Chloro-2-methoxypyridin-4-yl)-3-methylpiperidin-4-yl)oxy)pyridin-3-yl)-4-methoxypyrrolidin-2-yl)acetic acid]
69	73	COc1ccc(F)c(N2CCC(Oc3ccc(N4C[C@H](OC(C)C)C[C@@H]4CC(=O)O)cc3)C(C)C2)c1 (stereo partly drawn) [Example 38, 2-((2R,4R)-1-(4-(((3,4-trans)-1-(2-Fluoro-5-methoxyphenyl)-3-methylpiperidin-4-yl)oxy)phenyl)-4-isopropoxypyrrolidin-2-yl)acetic acid, TFA]
160	83	COc1ccc(C)c(N2CCC(Oc3ccc(N4C[C@H](OC)C[C@@H]4CC(=O)O)cc3)CC2)c1 [Example 57, 2-((2R,4R)-4-Methoxy-1-(4-((1-(5-methoxy-2-methylphenyl)piperidin-4-yl)oxy)phenyl)pyrrolidin-2-yl)acetic acid, TFA]
840	520	COc1cc(N2CCC(Oc3ccc(N4C[C@H](OC)C[C@@H]4CC(=O)O)cc3)CC2)c(F)cn1 [Example 96, 2-((2R,4R)-1-(4-((1-(5-Fluoro-2-methoxypyridin-4-yl)piperidin-4-yl)oxy)phenyl)-4-methoxypyrrolidin-2-yl)acetic acid, diethylammonium salt]
170	18	CCOc1ccc(F)c(N2CCC(Oc3ccc(N4CC(C)(OC)C[C@@H]4CC(=O)O)cc3)C(C)C2)c1 (stereo partly drawn) [Example 47, 2-((2R)-1-(4-(((3,4-trans)-1-(5-Ethoxy-2-fluorophenyl)-3-methylpiperidin-4-yl)oxy)phenyl)-4-methoxy-4-methylpyrrolidin-2-yl)acetic acid, HCl]
230	22	COc1cc(N2CCC(Oc3ccc(N4C[C@H](OC)C[C@@H]4CC(=O)O)c(F)c3)C(C)C2)c(Cl)cn1 (stereo partly drawn) [Example 139, 2-((2R,4R)-1-(4-((3,4-trans)-1-(5-Chloro-2-methoxypyridin-4-yl)-3-methylpiperidin-4-yloxy)-2-fluorophenyl)-4-methoxypyrrolidin-2-yl)acetic acid]
380	49	COc1cc(N2CCC(Oc3ccc(N4C[C@H](C(F)(F)F)C[C@@H]4CC(=O)O)cn3)C(C)C2)c(Cl)cn1 (stereo partly drawn) [Example 133, 2-((2R,4R)-1-(6-(((3,4-trans)-1-(5-Chloro-2-methoxypyridin-4-yl)-3-methylpiperidin-4-yl)oxy)pyridin-3-yl)-4-(trifluoromethyl)pyrrolidin-2-yl)acetic acid]
89	13	COc1ccc(CCC(C)(C)C)c(N2CCC(Oc3ccc(N4C[C@H](OC)C[C@@H]4CC(=O)O)cc3)CC2)c1 [Example 62, 2-((2R,4R)-1-(4-(1-(2-(3,3-Dimethylbutyl)-5-methoxyphenyl)piperidin-4-yloxy)phenyl)-4-methoxypyrrolidin-2-yl)acetic acid]
1620	1600	COc1cc(N2CCC(Oc3ccc(N4C[C@H](O)[C@@H](C)[C@@H]4CC(=O)O)c(F)c3)C(C)C2)c(Cl)cn1 (stereo partly drawn) [Example 115, 2-((2S,3S,4R)-1-(4-(((3,4-trans)-1-(5-Chloro-2-methoxypyridin-4-yl)-3-methylpiperidin-4-yl)oxy)-2-fluorophenyl)-4-hydroxy-3-methylpyrrolidin-2-yl)acetic acid]
190	18	COc1cc(N2CCC(Oc3ccc(N4C[C@H](OC)[C@@H](C)[C@@H]4CC(=O)O)cn3)C(C)C2)c(Cl)cn1 (stereo partly drawn) [Example 91, 2-((2S,3S,4R)-1-(6-(((3,4-trans)-1-(5-Chloro-2-methoxypyridin-4-yl)-3-methylpiperidin-4-yl)oxy)pyridin-3-yl)-4-methoxy-3-methylpyrrolidin-2-yl)acetic acid, HCl]
190	27	COc1cc(N2CCC(Oc3ccc(N4C[C@H](C(F)(F)F)C[C@@H]4CC(=O)O)c(F)c3)C(C)C2)c(Cl)cn1 (stereo partly shown) [Example 138]
270	51	CCOc1ccc(F)c(N2CCC(Oc3ccc(N4C[C@H](c5ccc(OC)nc5)C[C@@H]4CC(=O)O)cc3)CC2)c1 [Example 123, 2-((2R,4S)-1-(4-((1-(5-Ethoxy-2-fluorophenyl)piperidin-4-yl)oxy)phenyl)-4-(6-methoxypyridin-3-yl)pyrrolidin-2-yl)acetic acid, TFA]
320	70	CCOc1ccc(F)c(N2CCC(Oc3ccc(N4C[C@H](C(F)(F)F)C[C@@H]4CC(=O)O)cc3)CC2)c1 [Example 85, 2-((2R,4R)-1-(4-((1-(5-Ethoxy-2-fluorophenyl)piperidin-4-yl)oxy)phenyl)-4-(trifluoromethyl)pyrrolidin-2-yl)acetic acid]
